Results: US7465469B2, “Microbiocidal formulation comprising essentials oils or their derivatives” (State of Israel, Ministry of Agriculture & Rural …, priority 2001, dated 2008)
In brackets after ≈: the same amount, converted by molar mass. Read-outs that look alike come from different tables or passages of the source.

Key:
[1] = tested on: P. digitatum; experiment: Mode of action test (fungicidal or fungistatic) by transfer of the mycelial disc to plain PDA; assay type: cell-based, Penicillium digitatum; details: growth monitored 5 days after transfer to plain PDA
Text: A further test was made (in vitro) to investigate whether the mode of action was fungicidal or fungistatic; the mycelial disc of inoculum from the assay plate was transferred to a plate containing just PDA. Plates were then monitored for growth over the next 5 days. If growth resumed, the compound was classified fungistatic, and if growth was not resumed it was classified as fungicidal.

[2] = tested on: P. digitatum; experiment: Minimum inhibitory concentration in PDA Petri dishes (mycelial disc); assay type: cell-based, Penicillium digitatum; details: 24° C., hyphal growth after 7 days
Method: The minimum inhibitory concentration (MIC) of over 50 compounds that were found in the oil glands of citrus fruits was evaluated (in vitro) by establishing the lowest concentration of the compound where no growth of the pathogen occurred (in vitro) in Petri dishes. Table 5 gives the MIC of the more promising compounds (as compared to imazalil). The requisite amount of each of the compounds to be tested, dissolved in 0.5 ml acetone, was added to a sterile Petri dish (90 mm) containing 15 ml of molten potato dextrose agar (PDA) (50° C.) to give a final concentration of 1 mg ml^−1. The dish was gently agitated to ensure an even distribution of the test compound and the agar was then left to set. The dishes were inoculated using a mycelial disc (8 mm) cut from an agar plate culture of P. digitatum which had not yet begun sporulation. The mycelial discs were placed in the center of each test dish and then put at 24° C. Fungal inhibition was monitored by measuring the diameter of hyphal growth after 7 days.

[3] = tested on: lemon fruit; experiment: Peel blemish index of lemon fruit after 1-minute dip in citral with antioxidant BHA; assay type: in vivo; details: BHA by itself
Text: The antioxidant reduces the oxidation rate of the essential oils leading to their decomposition. It further reduces the inherent phytotoxicity of the essential oil. The antioxidant may be chosen from the group comprising of compounds such as but not limited to: butylated hydroxyanisole (BHA), ascorbic acid, isoascorbic acid, α-tocopherol, butylated hydroxytoluene (BHT), β-carotene or their mixtures. Preferred concentrations of the antioxidant in the formulation of the invention are in the range of from about 0.05% to about 0.8% (w/v).
The peel blemish index is determined by
(§1) The blemish score is 0 =no blemishes; 1=light blemishes; 2=moderate blemishes; and 3=severe blemishes.

[4] = tested on: Penicillium; experiment: Decay of lemons inoculated as in Example 2 and treated with citral emulsions; assay type: in vivo, Penicillium digitatum on lemons
Method: Unblemished grapefruit were harvested from the orchard and on the same day sorted again in the laboratory to eliminate injured fruit. The grapefruit were washed with tap water and air-dried. Each fruit was then inoculated by piercing its flavedo tissue 1.5 mm deep with a tool incorporating three needles at three different sites. Prior to each piercing, the tool was immersed in a spore suspension of Penicillium digitatum (10^6 spores/ml). The inoculated grapefruit were kept at 17° C. and 85% relative humidity for 24 hours after which the grapefruit were divided into six groups and grapefruit from each group were treated by dipping for two minutes in: (a) water; (b) 25% Ethanol (EtOH); (c) 0.2% Geraniol in 25% EtOH; (d) 0.1% Citral in 25% EtOH, (e) 0.2% Citral in 25% EtOH and (f) 0.5% Citral in 25% EtOH.
Lemons were inoculated as shown in Example 2 and treated with and without 25% of ethanol to check whether the 5000 ppm of the emulsifier Tween 20 could stabilize the antifungal activity of citral. […] Probably the emulsifier enables the formation of a microcolloidal stable emulsion, which prevents the phytotxicity by allowing uniform dispersion of citral, which is phytotoxic by itself in these concentrations. Thus, Tween 20 combined with the antioxidant BHA could substitute for the ethanol in the formulation.
Lemons inoculated with Penicillium as shown in Example 2 were dipped for 2 minutes in an aqueous solution comprising citral, emulsifier (Triton X100) and BHA at various concentrations. The concentration of Citral is 1.0%. The control solution was comprised of 0.5% Triton X100.
Lemons inoculated with Penicillium as shown in Example 2 were treated with an aqueous solution comprising 0.5% Citral, 0.3% BHA, Tween 20 and imazalil and stored at 20° C. for a period of 21 days.

[5] = tested on: Penicillium italicum; experiment: In vitro agar diffusion assay; assay type: cell-based; details: Five mg on paper disc; Total inhibition is the maximal inhibition, 62.3 cm^2
[6] = tested on: Geotrichum Candidum; experiment: In vitro agar diffusion assay; assay type: cell-based; details: Five mg on paper disc; Total inhibition is the maximal inhibition, 62.3 cm^2
[7] = tested on: Alternaria citri; experiment: In vitro agar diffusion assay; assay type: cell-based; details: Five mg on paper disc; Total inhibition is the maximal inhibition, 62.3 cm^2
[8] = tested on: Penicillium digitatum; experiment: Decay of Penicillium-inoculated grapefruit after 2-minute dip; assay type: in vivo, Penicillium digitatum on grapefruit
Text: Unblemished grapefruit were harvested from the orchard and on the same day sorted again in the laboratory to eliminate injured fruit. The grapefruit were washed with tap water and air-dried. Each fruit was then inoculated by piercing its flavedo tissue 1.5 mm deep with a tool incorporating three needles at three different sites. Prior to each piercing, the tool was immersed in a spore suspension of Penicillium digitatum (10^6 spores/ml).

[9] = tested on: lemons; experiment: Induction of phytoalexins (scoparone, scopoletin) in lemons; assay type: in vivo, lemon; details: injection into the albedo tissue of lemons
Method: Treating uninoculated lemons by injecting 5 μl photo-oxidized limonene into the albedo tissue, just below the flavedo, elicited in these lemons the production of scoparone and scopoletin up to levels adequate to protect the fruit from the pathogen. […] Such injury of yellow fruit gave much lower response showing that the maturity of fruit affects this resistance response and older fruit is less protected (FIG. 2). […] Furthermore much higher levels of both scoparone (over 1000 μg/g fresh weight) and of scopoletin (over 200 μg/g fresh weight) were found after dipping inoculated fruit in the crude dichloromethane extract that prevented decay (FIG. 7). The phytoalexins level found was several fold of the amount required to control completely the pathogens. Thus apparently, the formed limonene hydroperoxides form reactive oxygen species, which elicit the immune system of the plant. Such reactive oxygen species effect the pathogen as well. These reactive oxygen species have a short life and decompose well before the fruit is distributed to the market.

[10] = tested on: Cladosporium herbarum; experiment: Inhibition of Cladosporium herbarum growing on inoculated corn cob; assay type: in vivo; details: dissolved in 25% ethanol
[11] = tested on: Erwinia carotovora; experiment: Control of bacterial growth (other experiments, data not shown); assay type: cell-based
[12] = tested on: wild type Candida albicans; experiment: Growth of Candida albicans cells in culture broth (OD 600 nm); assay type: cell-based
Method: Cells of wild type Candida albicans (1×10^3) were grown on culture broth at 37° C. with different concentration of extracts 50-100 μl. OD was determined at 600 nm. The following treatments in 6 different tubes were given: […] TUBE 2. 2000 ppm Citral+25% Ethanol+2000 ppm Tween-20+300 ppm BHA. […] TUBE 6. 25% ethanol+2000 ppm Tween-20+500 ppm β-CD+300 ppm BHA.

[13] = tested on: microbial population in meat cuts of beef; experiment: Total count of microbial population in beef meat cuts after dip; details: 30 seconds dip in 0.2% Citral dissolved in 20% ethanol; 2 weeks at 1° C.
Method: The meat cuts were then stored in 1° C. and 85% relative humidity and a total count of the microbial population in each meat cut was carried out 2 weeks after treatment.

[14] = tested on: P. digitatum; experiment: Control of fungal growth (other experiments, data not shown); assay type: cell-based, Penicillium digitatum
[15] = tested on: non-inoculated Washington oranges; experiment: Decay percentage of non-inoculated Washington oranges during storage; assay type: in vivo, Washington navel oranges
Method: Non-inoculated Washington navel oranges were divided into […] groups which were treated as follows: (a) no treatment; (b) dipped in 50% Ethanol; (c) dipped in 0.2% Citral in 0.02% L-77 Emulsifier (aqueous emulsion); (d) dipped in 0.2% Citral in 50% Ethanol; and (e) dipped in a 0.2% aqueous Imazalil solution.
Oranges were then stored for four months at 15° C. in 50-75% relative humidity and the percentage of rotten fruit in each group was measured at different time periods after storage.

[16] = tested on: Penicillium digitatum; experiment: Decay of lemons inoculated with Penicillium 10^4 spores/ml and dipped; assay type: in vivo, Penicillium digitatum on lemons; details: limonene or peel extract not irradiated or exposed to sunlight
Method: Lemon fruit flavedo (exocarp) was taken and extracted overnight in dichloromethane, then exposed to sunlight for about 18 hours until the color of the dichloromethane extract turned brown. The flavedo was blended and filtered through a layer of Whatman paper. The extracted solution was evaporated to remove the dichloromethane and the dense liquor was further separated by chromatography with a silica 60 column using dichloromethane as a carrier. Two fractions of dichloromethane, one green and the other colorless, were obtained after chromatography. The crude active extract was isolated by evaporation of the green dichloromethane fraction. […] Effect of the compounds on pathogen development on the fruit was checked daily during storage.
The antifungal activity of the products prepared in the two different routes was checked in the same method. […] Decay was evaluated at specific intervals during a period of 26 days.
Lemons inoculated with Penicillium (10^4 spores/ml) were dipped in an aqueous solution comprising citral, a detergent (Tween 20), other essential oil components as well as a dichloromethane crude extract of lemon flavedo exposed to sunlight. Decay was evaluated at specific intervals during a period of 20 days.
Pure limonene was exposed to sunlight for three hours. […]

[17] = tested on: fruit; experiment: Phytotoxicity of citral solutions comprising emulsifiers (1-minute fruit dip); details: in vivo
Text: as §1

[18] = Penicillium digitatum, 168 h, read-out: MIC

C=C(C)C1CC=C(C)C(O)C1 (mixture of isomers) [Carveol]
Mode of action [1]: Fungistatic
MIC [2, 18]: 1000 µg/mL

COc1ccc(O)c(C(C)(C)C)c1 [BHA, butylated hydroxyanisole]
Peel blemish [3]: did not cause any blemish
activity of citral in preventing the development of the pathogen ([4]; 0.1% BHA with 1.0% citral and Triton X100, 2 minutes dip): enhancing the activity of citral

O=CC=Cc1ccccc1 [Cinnamaldehyde]
GROWTH INHIBITION AREA OF THE PATHOGEN [5]: Total inhibition
GROWTH INHIBITION AREA OF THE PATHOGEN [6]: 24.2 cm^2
GROWTH INHIBITION AREA OF THE PATHOGEN [7]: Total inhibition
Mode of action [1]: Fungicidal
MIC [2, 18]: 400 µg/mL (≈ 3030 µM)

CC(C)=CCCC(C)=CC=O [Citral, 3,7-dimethyl-2,6-octadienal]
fruit showing decay ([8]; 0.2% Citral dissolved in 25% EtOH, 28 days after inoculation): 20%
decay of fruit ([8]; 0.2% Citral dissolved in 25% EtOH, until 18 days after inoculation): completely inhibited decay
decay of fruit ([8]; 0.5% Citral in 25% EtOH, ascribed to phytotoxicity): enhanced decay
elicitation of phytoalexin (scoparone, scopoletin) production [9]: did not elicit the same protective response
decay control ([4]; 0.5% citral added to 1 ppm imazalil, 0.3% BHA, Tween 20, 20° C., 21 days): did not control decay adequately
decay control ([4]; 0.5% citral added to 10 ppm imazalil, 0.3% BHA, Tween 20, 20° C., 21 days): prevented decay completely
GROWTH INHIBITION AREA OF THE PATHOGEN [5]: Total inhibition
GROWTH INHIBITION AREA OF THE PATHOGEN [6]: 10.6 cm^2
GROWTH INHIBITION AREA OF THE PATHOGEN [7]: Total inhibition
Mode of action [1]: Fungicidal
inhibition of the pathogen [10]: marked inhibition
controlling growth of the bacteria [11]: effective in controlling growth
cell growth ([12]; 2000 ppm Citral in 25% ethanol and 2000 ppm Tween 20): completely inhibited cell growth
cell growth ([12]; 2000 ppm Citral, 25% ethanol, 2000 ppm Tween 20 together with β-CD 500 ppm, 300 ppm BHA): completely inhibited cell growth
total counts of microbial population, relative to the non-treated meat cuts [13]: less than 10%
MIC [2, 18]: 400 µg/mL (≈ 2630 µM)
controlling growth of the fungi [14]: effective in controlling growth

CC(C)=CCCC(C)CC=O (stereo not shown) [Citronellal]
Mode of action [1]: Fungistatic
MIC [2, 18]: 600 µg/mL (≈ 3890 µM)

CCCCCCCCCCO [Decanol]
GROWTH INHIBITION AREA OF THE PATHOGEN [5]: Total inhibition
GROWTH INHIBITION AREA OF THE PATHOGEN [6]: 0.95 cm^2
GROWTH INHIBITION AREA OF THE PATHOGEN [7]: Total inhibition
Mode of action [1]: Fungistatic
MIC [2, 18]: 50 µg/mL (≈ 316 µM)

C=CCOC(Cn1ccnc1)c1ccc(Cl)cc1Cl (stereo not shown) [Imazalil, reference compound]
decay control ([4]; imazalil 1 and 10 ppm, stored at 20° C. for 21 days): insufficient to control completely decay
GROWTH INHIBITION AREA OF THE PATHOGEN [5]: Total inhibition
GROWTH INHIBITION AREA OF THE PATHOGEN [6]: 8.3 cm^2
GROWTH INHIBITION AREA OF THE PATHOGEN [7]: 42.8 cm^2
Mode of action [1]: Fungicidal
% of rotten fruit ([15]; 0.5 months of storage at 15° C.): 0%
% of rotten fruit ([15]; 1 month of storage at 15° C.): 2%
% of rotten fruit ([15]; 2 months of storage at 15° C.): 4%
% of rotten fruit ([15]; 3 months of storage at 15° C.): 5%
% of rotten fruit ([15]; 4 months of storage at 15° C.): 8%
MIC [2, 18]: < 25 µg/mL

CCCCCCCCCO [Nonanol]
Mode of action [1]: Fungistatic
MIC [2, 18]: 200 µg/mL (≈ 1390 µM)

CCCCCCCC=O [Octanal]
GROWTH INHIBITION AREA OF THE PATHOGEN [5]: 2.6 cm^2
GROWTH INHIBITION AREA OF THE PATHOGEN [6]: 3.6 cm^2
GROWTH INHIBITION AREA OF THE PATHOGEN [7]: 5.3 cm^2

CCCCCCCCO [Octanol]
GROWTH INHIBITION AREA OF THE PATHOGEN [5]: Total inhibition
GROWTH INHIBITION AREA OF THE PATHOGEN [6]: Total inhibition
GROWTH INHIBITION AREA OF THE PATHOGEN [7]: Total inhibition
Mode of action [1]: Fungicidal
MIC [2, 18]: 100 µg/mL (≈ 768 µM)

C=C(C)[C@@H]1CC=C(CO)CC1 [Perillalcohol]
Mode of action [1]: Fungicidal
MIC [2]: 0.4 mg ml^−1 agar

C=C(C)C1CC=C(C=O)CC1 (stereo not shown) [Perillaldehyde]
GROWTH INHIBITION AREA OF THE PATHOGEN [5]: Total inhibition
GROWTH INHIBITION AREA OF THE PATHOGEN [6]: Total inhibition
GROWTH INHIBITION AREA OF THE PATHOGEN [7]: Total inhibition
Mode of action [1]: Fungicidal
MIC [2, 18]: 400 µg/mL (≈ 2660 µM)

C=C(C)C1CC=C(C)CC1 (stereo not shown) [limonene, 1-methyl-4-(1-methylethenyl)cyclohexene]
elicitation of phytoalexin (scoparone, scopoletin) production [9]: eliciting the endogenous resistance mechanisms
inhibition of decay [16]: not adequately active

polyoxyethylene sorbitan monooleate [Tween 80]
Phytotoxicity (peel blemish index as in Table 1) [17]: 0
